Test results published in patent publication US5260479A, “Inhibitors of farnesyl protein transferase” (Merck & Co., Inc., priority 1991, dated 1993).

Biological target: T1, Farnesyl-protein transferase (FTase) (Bos taurus, UniProt P29702+P49355)
T1 construct: Farnesyl-protein transferase (FTase) from bovine brain was chromatographed; from tissue; host or cells: bovine brain
Experiment: In Vitro Inhibition of Ras Farnesyl Transferase (inhibition of Ras-CVLS farnesylation)
Assay type: biochemical
Details: partially purified bovine brain FTase; Ras-CVLS 3.5 μM, 0.25 μM [3H]FPP
Method: Farnesyl-protein transferase (FTase) from bovine brain was chromatographed on DEAE-Sephacel (Pharmacia, 0-0.8M NaCl gradient elution), N-octyl agarose (Sigma, 0-0.6M NaCl gradient elution), and a mono Q HPLC column (Pharmacia, 0-0.3M NaCl gradient). Ras-CVLS at 3.5 μM, 0.25 μM [^3 H]FPP, and the indicated compounds were incubated with this partially purified enzyme preparation. The FTase inhibitory data presented below is a measurement of the ability of the test compound to inhibit Ras farnesylation in vitro.

| IC50 [µM] | SMILES |
| --- | --- |
| 7.7 | CCCCCCCCCCCCCC/C(C(=O)O)=C(/C)C(=O)O [A] |
| 1.7 | C=C(C(=O)O)C(CCCCCCCCCCCCCC)C(=O)O (centres unmarked) [B] |
